Laboratory results published in paper PMC9090415, “Discovery of small molecule inhibitors of Plasmodium falciparum apicoplast DNA polymerase” (Journal of Enzyme Inhibition and Medicinal Chemistry, 2022).

Biological target: P. falciparum apicoplast DNA polymerase (Pf-apPOL) (Plasmodium falciparum, UniProt Q8ILY1)
Assay: Fluorescence-based high-throughput DNA polymerase assay (molecular beacon), primary screen and dose-response;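 for % inhibition ApPOL 90': test concentration in µM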;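 for % inhibition apPOL 180': test concentration in µM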
Format: biochemical
Method in brief: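 Single-point screening used 10 µM compound with 20 nM polymerase, 20 nM hairpin substrate and 6 µM dNTPs for 90 min at 25 °C. Confirmatory titrations (2.5–80 µM) followed fluorescence at three times, and IC50 was derived from a fit including a cooperativity term n.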

[1] = supplemental file 2, sheet IC50 nontoxic compounds; Pf-apPOL

P. falciparum apicoplast DNA polymerase (Pf-apPOL), sequence (Q8ILY1 entry or part of it): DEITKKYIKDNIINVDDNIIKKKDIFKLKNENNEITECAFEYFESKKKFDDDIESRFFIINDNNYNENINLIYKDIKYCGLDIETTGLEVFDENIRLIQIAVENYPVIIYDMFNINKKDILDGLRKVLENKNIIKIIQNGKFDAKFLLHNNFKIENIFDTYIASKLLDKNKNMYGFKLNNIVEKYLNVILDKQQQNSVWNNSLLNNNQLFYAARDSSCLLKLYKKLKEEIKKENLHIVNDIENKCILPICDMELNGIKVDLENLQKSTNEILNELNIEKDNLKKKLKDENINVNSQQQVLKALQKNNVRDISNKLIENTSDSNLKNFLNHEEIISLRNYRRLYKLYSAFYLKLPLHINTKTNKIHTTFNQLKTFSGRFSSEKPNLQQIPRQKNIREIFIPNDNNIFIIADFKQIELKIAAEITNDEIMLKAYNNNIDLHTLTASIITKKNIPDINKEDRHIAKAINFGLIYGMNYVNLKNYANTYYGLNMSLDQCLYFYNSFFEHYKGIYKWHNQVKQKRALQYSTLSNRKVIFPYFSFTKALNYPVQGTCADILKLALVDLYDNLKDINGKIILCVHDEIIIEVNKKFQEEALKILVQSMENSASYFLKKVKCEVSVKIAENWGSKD

`CCCCCCCCCCCC1SCC(C(=O)O)N1C(C)=O` (stereo not shown) [Molecule 72] was tested, and the “% inhibition Apo pol 10'” value (DRC-1; 10'; concentration 2.5) was 3.482%, the “% inhibition Apo pol 10'” value (DRC-1; 10'; concentration 5) was 5.699% and the “% inhibition Apo pol 10'” value (DRC-1; 10'; concentration 10) was 15.2619%. The “% inhibition Apo pol 10'” value (DRC-1; 10'; concentration 20) was 24.1814%, the “% inhibition Apo pol 10'” value (DRC-1; 10'; concentration 40) was 35.0794% and the “% inhibition Apo pol 10'” value (DRC-1; 10'; concentration 80) was 89.6133%. The “% inhibition Apol 90'” value (DRC-1; 90'; concentration 2.5) was 2.632%, the “% inhibition Apol 90'” value (DRC-1; 90'; concentration 5) was 5.518% and the “% inhibition Apol 90'” value (DRC-1; 90'; concentration 10) was 12.9803%. The “% inhibition Apol 90'” value (DRC-1; 90'; concentration 20) was 20.4329%, the “% inhibition Apol 90'” value (DRC-1; 90'; concentration 40) was 28.5438% and the “% inhibition Apol 90'” value (DRC-1; 90'; concentration 80) was 88.679%. The “% inhibition apPOL 180'” value (DRC-1; 180'; concentration 2.5) was -2.715%, the “% inhibition apPOL 180'” value (DRC-1; 180'; concentration 5) was -0.6083% and the “% inhibition apPOL 180'” value (DRC-1; 180'; concentration 10) was 5.5577%. The “% inhibition apPOL 180'” value (DRC-1; 180'; concentration 20) was 11.4894%, the “% inhibition apPOL 180'” value (DRC-1; 180'; concentration 40) was 17.8626% and the “% inhibition apPOL 180'” value (DRC-1; 180'; concentration 80) was 86.0518%. The “% inhibition Apo pol 5'” value (DRC-2; 5'; concentration 2.5) was 13%, the “% inhibition Apo pol 5'” value (DRC-2; 5'; concentration 5) was 16% and the “% inhibition Apo pol 5'” value (DRC-2; 5'; concentration 10) was 26%. For the same compound, the “% inhibition Apo pol 5'” value (DRC-2; 5'; concentration 20) was 38%, the “% inhibition Apo pol 5'” value (DRC-2; 5'; concentration 40) was 54% and the “% inhibition Apo pol 5'” value (DRC-2; 5'; concentration 80) was 59%. For the same compound, the “% inhibition Apol 40'” value (DRC-2; 40'; concentration 2.5) was 10%, the “% inhibition Apol 40'” value (DRC-2; 40'; concentration 5) was 15% and the “% inhibition Apol 40'” value (DRC-2; 40'; concentration 10) was 29%. The “% inhibition Apol 40'” value (DRC-2; 40'; concentration 20) was 44%, the “% inhibition Apol 40'” value (DRC-2; 40'; concentration 40) was 65% and the “% inhibition Apol 40'” value (DRC-2; 40'; concentration 80) was 76%. The “% inhibition ApPOL 90'” value (DRC-2; 90'; concentration 2.5) was 6%, the “% inhibition ApPOL 90'” value (DRC-2; 90'; concentration 5) was 13% and the “% inhibition ApPOL 90'” value (DRC-2; 90'; concentration 10) was 26%. For the same compound, the “% inhibition ApPOL 90'” value (DRC-2; 90'; concentration 20) was 43%, the “% inhibition ApPOL 90'” value (DRC-2; 90'; concentration 40) was 67% and the “% inhibition ApPOL 90'” value (DRC-2; 90'; concentration 80) was 81%. The “% inhibition apPOL 180'” value (DRC-2; 180'; concentration 2.5) was 0.516%, the “% inhibition apPOL 180'” value (DRC-2; 180'; concentration 5) was 5% and the “% inhibition apPOL 180'” value (DRC-2; 180'; concentration 10) was 17%. For the same compound, the “% inhibition apPOL 180'” value (DRC-2; 180'; concentration 20) was 34%, the “% inhibition apPOL 180'” value (DRC-2; 180'; concentration 40) was 64% and the “% inhibition apPOL 180'” value (DRC-2; 180'; concentration 80) was 84%. For the same compound, the “% inhibition Apo pol 5'” value (conc. 2.5; 5'; DRC-2) was 13%, the “% inhibition ApPOL 90'” value (conc. 5; 90'; DRC-2) was 13% and the “% inhibition Apo pol 5'” value (conc. 10; 5'; DRC-2) was 26%. The “% inhibition ApPOL 90'” value (conc. 10; 90'; DRC-2) was 26%, the “DNA Pol” value (primary screen value by plate and well; 90 min, 10 µM) was 90 and the “DNA Pol” value (primary screen value of the 186 hits; unit not given; 90 min, 10 µM) was 90. For the same compound, the IC50 [1] was 48.9 µM.

In the case of `CC(=O)OCC1=C(C(=O)O)N2C(=O)[C@@H](NC(=O)Cc3cccs3)[C@H]2SC1` [Molecule 73], the IC50 [1] is reported as 16.6 µM.

`O=C(Nc1nnc(-c2cccs2)o1)c1ccc([N+](=O)[O-])o1` [Molecule 74, O=C(c1ccc(o1)[N+](=O)[O-])Nc1nnc(o1)c1cccs1] was tested, and the “DNA Pol” value ('DNA Pol'; screening value, unit not given; 90 min, 10 µM) was 45, the “% inhibition Apo pol 10'” value (DRC-1; 10'; concentration 2.5) was 6.774% and the “% inhibition Apo pol 10'” value (DRC-1; 10'; concentration 5) was 8.378%. For the same compound, the “% inhibition Apo pol 10'” value (DRC-1; 10'; concentration 10) was 26.6912%, the “% inhibition Apo pol 10'” value (DRC-1; 10'; concentration 20) was 31.2083% and the “% inhibition Apo pol 10'” value (DRC-1; 10'; concentration 40) was 61.6111%. For the same compound, the “% inhibition Apo pol 10'” value (DRC-1; 10'; concentration 80) was 81.7408%, the “% inhibition Apol 90'” value (DRC-1; 90'; concentration 2.5) was 1.699% and the “% inhibition Apol 90'” value (DRC-1; 90'; concentration 5) was 1.687%. For the same compound, the “% inhibition Apol 90'” value (DRC-1; 90'; concentration 10) was 13.6974%, the “% inhibition Apol 90'” value (DRC-1; 90'; concentration 20) was 16.6576% and the “% inhibition Apol 90'” value (DRC-1; 90'; concentration 40) was 40.7668%. For the same compound, the “% inhibition Apol 90'” value (DRC-1; 90'; concentration 80) was 62.2777%, the “% inhibition apPOL 180'” value (DRC-1; 180'; concentration 2.5) was -4.1234% and the “% inhibition apPOL 180'” value (DRC-1; 180'; concentration 5) was -4.583%. The “% inhibition apPOL 180'” value (DRC-1; 180'; concentration 10) was 3.855%, the “% inhibition apPOL 180'” value (DRC-1; 180'; concentration 20) was 5.086% and the “% inhibition apPOL 180'” value (DRC-1; 180'; concentration 40) was 25.388%. For the same compound, the “% inhibition apPOL 180'” value (DRC-1; 180'; concentration 80) was 45.6773%, the “% inhibition Apo pol 5'” value (DRC-2, 5', concentration 2.5) was 3% and the “% inhibition Apo pol 5'” value (DRC-2, 5', concentration 5) was 14%. For the same compound, the “% inhibition Apo pol 5'” value (DRC-2, 5', concentration 10) was 30%, the “% inhibition Apo pol 5'” value (DRC-2, 5', concentration 20) was 41% and the “% inhibition Apo pol 5'” value (DRC-2, 5', concentration 40) was 61%. For the same compound, the “% inhibition Apo pol 5'” value (DRC-2, 5', concentration 80) was 70%, the “% inhibition Apol 40'” value (DRC-2, 40', concentration 2.5) was 1.79% and the “% inhibition Apol 40'” value (DRC-2, 40', concentration 5) was 13%. The “% inhibition Apol 40'” value (DRC-2, 40', concentration 10) was 27%, the “% inhibition Apol 40'” value (DRC-2, 40', concentration 20) was 36% and the “% inhibition Apol 40'” value (DRC-2, 40', concentration 40) was 61%. The “% inhibition Apol 40'” value (DRC-2, 40', concentration 80) was 78%, the “% inhibition ApPOL 90'” value (DRC-2, 90', concentration 2.5) was -0.446% and the “% inhibition ApPOL 90'” value (DRC-2, 90', concentration 5) was 12%. For the same compound, the “% inhibition ApPOL 90'” value (DRC-2, 90', concentration 10) was 24%, the “% inhibition ApPOL 90'” value (DRC-2, 90', concentration 20) was 32% and the “% inhibition ApPOL 90'” value (DRC-2, 90', concentration 40) was 57%. The “% inhibition ApPOL 90'” value (DRC-2, 90', concentration 80) was 79%, the “% inhibition apPOL 180'” value (DRC-2, 180', concentration 2.5) was -3.19% and the “% inhibition apPOL 180'” value (DRC-2, 180', concentration 5) was 7%. For the same compound, the “% inhibition apPOL 180'” value (DRC-2, 180', concentration 10) was 15%, the “% inhibition apPOL 180'” value (DRC-2, 180', concentration 20) was 20% and the “% inhibition apPOL 180'” value (DRC-2, 180', concentration 40) was 45%. The “% inhibition apPOL 180'” value (DRC-2, 180', concentration 80) was 76%, the “% inhibition Apo pol 5'” value (conc 40 (unit not given); 5'; DRC-2) was 61% and the “% inhibition Apol 40'” value (conc 40 (unit not given); 40'; DRC-2) was 61%. For the same compound, the “DNA Pol” value (primary screen hit value, DNA Pol (186 hits); 90 min, 10 µM) was 45.

Compound `O=C(Nc1nnc(-c2cccs2)o1)c1ccc([N+](=O)[O-])o1` [Molecule 74] has an IC50 [1] of 30.8 µM.
